Source: patent publication US11058716B2 (priority 2015, dated 2021)

System: PAO1 protein
Format: cell-based, Pseudomonas aeruginosa

For `N[C@@H](CCC(=O)N[C@@H](CSN=O)C(=O)NCC(=O)O)C(=O)O` [GSNO, nitrosoglutathione], the “overall SNO level of the PAO1 protein” value was “increased significantly”.
